Data reported in patent publication US20240368150A1 (Hoffmann-La Roche Inc., priority 2021, published 2024).
Where two headings read alike, the source gives them in different places.

How the values were obtained:
[1] = tested on: primary human T-cells
[2] = tested on: primary human T-cells; experiment: Proliferation assay after 5 days (CellTiter-Glo, CD3 stimulation; PBS counter screen); type: cell-based; settings: Homo sapiens, T-cell, 120 h, CD3 stimulation; for Emax: 5 days, normalized to reference compound A1 as stimulator control = 100%, DMSO neutral control, read-out: Emax proliferation (% activation); for EC50: primary human T-cells, CellTiter-Glo after 5 days, EC50 of fitted sigmoidal curve, read-out: Tcell Proliferation CD3 EC50
How it was run: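 Read-out: CellTiter-Glo 2.0 luminescence (ATP ∝ cell number) at day 5 after compound addition. Compounds activating unstimulated cells or reducing viability flagged.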

| EC50 [1] [nM] | SMILES | Emax [2] [%] | EC50 [2] [nM] |
| --- | --- | --- | --- |
| > 10000 | N[C@H]1CS(=O)(=O)c2ccc(-c3nnc(N4CCOC5CC54)o3)cc2N(Cc2ccc(Cl)cc2)C1=O (stereo partly drawn) [Example 408, (3R)-3-amino-5-[(4-chlorophenyl)methyl]-7-[5-(2-oxa-5-azabicyclo[4.1.0]heptan-5-yl)-1,3,4-oxadiazol-2-yl]-1,1-dioxo-2,3-dihydro-1λ^6,5-benzothiazepin-4-one] | 88 | 4890 |
| 7130 | N[C@H]1CS(=O)(=O)c2ccc(-c3nnc(N4CCOCC4)o3)cc2N(Cc2ccc(Cl)cc2)C1=O [Example 410, (3R)-3-amino-5-[(4-chlorophenyl)methyl]-7-(5-morpholino-1,3,4-oxadiazol-2-yl)-1,1-dioxo-2,3-dihydro-1λ^6,5-benzothiazepin-4-one] | 109 | 1160 |
| > 10000 | N[C@H]1CS(=O)(=O)c2ccc(-c3nnc(N4CCOC5(CC5)C4)o3)cc2N(Cc2ccc(Cl)cc2)C1=O [Example 411, (3R)-3-amino-5-[(4-chlorophenyl)methyl]-7-[5-(4-oxa-7-azaspiro[2.5]octan-7-yl)-1,3,4-oxadiazol-2-yl]-1,1-dioxo-2,3-dihydro-1λ^6,5-benzothiazepin-4-one] | 78 | 454 |
| 4390 | N[C@H]1CS(=O)(=O)c2ccc(-c3nnc(C4(N)CCCC4)o3)cc2N(Cc2ccc(OC(F)(F)F)cc2)C1=O [Example 414, (3R)-3-amino-7-[5-(1-aminocyclopentyl)-1,3,4-oxadiazol-2-yl]-1,1-dioxo-5-[[4-(trifluoromethoxy)phenyl]methyl]-2,3-dihydro-1λ^6,5-benzothiazepin-4-one] | 83 | 2590 |
| 443 | N[C@H]1CS(=O)(=O)c2ccc(-c3nnc(C(F)(F)C(F)(F)F)o3)cc2N(Cc2ccc(OC(F)(F)F)cc2)C1=O [Example 415, (3R)-3-amino-1,1-dioxo-7-[5-(1,1,2,2,2-pentafluoroethyl)-1,3,4-oxadiazol-2-yl]-5-[[4-(trifluoromethoxy)phenyl]methyl]-2,3-dihydro-1λ^6,5-benzothiazepin-4-one] | 64 | 6230 |
| 5740 | N[C@H]1CS(=O)(=O)c2ccc(-c3nnc(C4(N)CCOCC4)o3)cc2N(Cc2ccc(OC(F)(F)F)cc2)C1=O [Example 418, (3R)-3-amino-7-[5-(4-aminotetrahydropyran-4-yl)-1,3,4-oxadiazol-2-yl]-1,1-dioxo-5-[[4-(trifluoromethoxy)phenyl]methyl]-2,3-dihydro-1λ^6,5-benzothiazepin-4-one] | 52 | 9500 |
| 1510 | CNC(C)(C)c1nnc(-c2ccc3c(c2)N(Cc2ccc(OC(F)(F)F)cc2)C(=O)[C@@H](N)CS3(=O)=O)o1 [Example 419, (3R)-3-amino-7-[5-[1-methyl-1-(methylamino)ethyl]-1,3,4-oxadiazol-2-yl]-1,1-dioxo-5-[[4-(trifluoromethoxy)phenyl]methyl]-2,3-dihydro-1λ^6,5-benzothiazepin-4-one] | 62 | 7270 |
| 1350 | CC(C)(C#N)c1nnc(-c2ccc3c(c2)N(Cc2ccc(OC(F)(F)F)cc2)C(=O)[C@@H](N)CS3(=O)=O)o1 [Example 420, 2-[5-[(3R)-3-amino-1,1,4-trioxo-5-[[4-(trifluoromethoxy)phenyl]methyl]-2,3-dihydro-1λ^6,5-benzothiazepin-7-yl]-1,3,4-oxadiazol-2-yl]-2-methyl-propanenitrile] | 167 | 1590 |
| 3240 | CN1CC(c2nnc(-c3ccc4c(c3)N(Cc3ccc(OC(F)(F)F)cc3)C(=O)[C@@H](N)CS4(=O)=O)o2)CC(F)(F)C1 (stereo partly drawn) [Example 421, (3R)-3-amino-7-[5-(5,5-difluoro-1-methyl-3-piperidyl)-1,3,4-oxadiazol-2-yl]-1,1-dioxo-5-[[4-(trifluoromethoxy)phenyl]methyl]-2,3-dihydro-1λ^6,5-benzothiazepin-4-one] | 123 | 2480 |
| 1500 | COC(=O)N1CCC(c2nnc(-c3ccc4c(c3)N(Cc3ccc(OC(F)(F)F)cc3)C(=O)[C@@H](N)CS4(=O)=O)o2)C1 (stereo partly drawn) [Example 423, methyl 3-[5-[(3R)-3-amino-1,1,4-trioxo-5-[[4-(trifluoromethoxy)phenyl]methyl]-2,3-dihydro-1λ^6,5-benzothiazepin-7-yl]-1,3,4-oxadiazol-2-yl]pyrrolidine-1-carboxylate] | 78 | 1720 |
| 69.4 | COC(F)(c1nnc(-c2ccc3c(c2)N(Cc2ccc(OC(F)(F)F)cc2)C(=O)[C@@H](N)CS3(=O)=O)o1)C(F)(F)F (stereo partly drawn) [Example 424, (3R)-3-amino-1,1-dioxo-7-[5-(1,2,2,2-tetrafluoro-1-methoxy-ethyl)-1,3,4-oxadiazol-2-yl]-5-[[14-(trifluoromethoxy)phenyl]methyl]-2,3-dihydro-1λ^6,5-benzothiazepin-4-one] | 88 | 72.3 |
| 960 | CC(C)(C)c1nnc(-c2ccc3c(c2)N(Cc2ccc(OCC(F)(F)F)cc2)C(=O)[C@@H](N)CS3(=O)=O)o1 [Example 429, (3R)-3-amino-7-(5-tert-butyl-1,3,4-oxadiazol-2-yl)-1,1-dioxo-5-[[4-(2,2,2-trifluoroethoxy)phenyl]methyl]-2,3-dihydro-1λ^6,5-benzothiazepin-4-one] | 103 | 4850 |
| 4080 | CC(C)(C)c1nnc(-c2ccc3c(c2)N(Cc2ccc(OCC4CC4)cc2)C(=O)[C@@H](N)CS3(=O)=O)o1 [Example 431, (3R)-3-amino-7-(5-tert-butyl-1,3,4-oxadiazol-2-yl)-5-[[4-(cyclopropylmethoxy)phenyl]methyl]-1,1-dioxo-2,3-dihydro-1λ^6,5-benzothiazepin-4-one] | 110 | 1930 |
| 2700 | CC(C)(C)c1nnc(-c2ccc3c(c2)N(Cc2ccc(OCC(F)F)cc2)C(=O)[C@@H](N)CS3(=O)=O)o1 [Example 432, (3R)-3-amino-7-(5-tert-butyl-1,3,4-oxadiazol-2-yl)-5-[[4-(2,2-difluoroethoxy)phenyl]methyl]-1,1-dioxo-2,3-dihydro-1λ^6,5-benzothiazepin-4-one] | 103 | 1440 |
| 5600 | CC(C)(C)c1nnc(-c2ccc3c(c2)N(Cc2ccc(OCC4CCOCC4)cc2)C(=O)[C@@H](N)CS3(=O)=O)o1 [Example 433, (3R)-3-amino-7-(5-tert-butyl-1,3,4-oxadiazol-2-yl)-1,1-dioxo-5-[[4-(tetrahydropyran-4-ylmethoxy)phenyl]methyl]-2,3-dihydro-1λ^6,5-benzothiazepin-4-one] | 105 | 4790 |
| 6160 | CC(C)(C)c1nnc(-c2ccc3c(c2)N(Cc2ccc(OC4CCCCC4)cc2)C(=O)[C@@H](N)CS3(=O)=O)o1 [Example 434, (3R)-3-amino-7-(5-tert-butyl-1,3,4-oxadiazol-2-yl)-5-[[4-(cyclohexoxy)phenyl]methyl]-1,1-dioxo-2,3-dihydro-1λ^6,5-benzothiazepin-4-one] | 130 | – |
| 3280 | CC(C)(C)c1nnc(-c2ccc3c(c2)N(Cc2ccc(OC4CC4)cc2)C(=O)[C@@H](N)CS3(=O)=O)o1 [Example 435] | 117 | 671 |
| 4230 | CC(C)(C)c1nnc(-c2ccc3c(c2)N(Cc2ccc(OC4CCOCC4)cc2)C(=O)[C@@H](N)CS3(=O)=O)o1 [Example 436, (3R)-3-amino-7-(5-tert-butyl-1,3,4-oxadiazol-2-yl)-1,1-dioxo-5-[(4-tetrahydropyran-4-yloxyphenyl)methyl]-2,3-dihydro-1λ^6,5-benzothiazepin-4-one] | 66 | 940 |
| 2100 | CC(C)(C)c1nnc(-c2ccc3c(c2)N(Cc2ccc(Oc4ccc(F)cc4)cc2)C(=O)[C@@H](N)CS3(=O)=O)o1 [Example 439, (3R)-3-amino-7-(5-tert-butyl-1,3,4-oxadiazol-2-yl)-5-[[4-(4-fluorophenoxy)phenyl]methyl]-1,1-dioxo-2,3-dihydro-1λ^6,5-benzothiazepin-4-one] | 138 | 299 |
| 2510 | CC(C)(C)c1nnc(-c2ccc3c(c2)N(Cc2ccc(Oc4ccc(C(F)(F)F)cn4)cc2)C(=O)[C@@H](N)CS3(=O)=O)o1 [Example 440, (3R)-3-amino-7-(5-tert-butyl-1,3,4-oxadiazol-2-yl)-1,1-dioxo-5-[[4-[[5-(trifluoromethyl)-2-pyridyl]oxy]phenyl]methyl]-2,3-dihydro-1λ^6,5-benzothiazepin-4-one] | 110 | 2520 |
| 3850 | CC#CCOc1ccc(CN2C(=O)[C@@H](N)CS(=O)(=O)c3ccc(-c4nnc(C(C)(C)C)o4)cc32)cc1 [Example 441, (3R)-3-amino-7-(5-tert-butyl-1,3,4-oxadiazol-2-yl)-5-[(4-but-2-ynoxyphenyl)methyl]-1,1-dioxo-2,3-dihydro-1λ^6,5-benzothiazepin-4-one] | 128 | 1020 |

| SMILES | EC50 [1] [nM] | Emax [2] [%] | EC50 [2] [nM] |
| --- | --- | --- | --- |
| COC(=O)N1CC2CC(c3nnc(-c4ccc5c(c4)N(Cc4ccc(OC(F)(F)F)cc4)C(=O)[C@@H](N)CS5(=O)=O)o3)(C2)C1 [Example 422, Methyl 1-[5-[(3R)-3-amino-1,1,4-trioxo-5-[[4-(trifluoromethoxy)phenyl]methyl]-2,3-dihydro-1λ^6,5-benzothiazepin-7-yl]-1,3,4-oxadiazol-2-yl]-3-azabicyclo[3.1.1]heptane-3-carboxylate] | 835 | 102 | 1830 |
